Laboratory results as given in article PMC8973347, “Discovery of novel sulphonamide hybrids that inhibit LSD1 against bladder cancer cells” (Journal of Enzyme Inhibition and Medicinal Chemistry, 2022).
“Also recorded” adds a separate entry of the source.

How the values were obtained:
[1] = test system: SGC-7901 (human gastric cell line); assay: MTT cell viability assay, SGC-7901; conditions: read-out: IC50 against SGC-7901 cells, 48 h
Protocol: (§1) Cells were cultured at a 96-well plate for 24 h (Cayman Chemical, Fort Annapolis, MI) and different compounds were added. […] The solution was removed and dimethyl sulphoxide was added. Thirty minutes later, absorption values were read by a Fully Automated Microplate ELISA Analyser (DeTie, NanJing, China).

[2] = test system: HTB5 cells (bladder cancer cell line); assay: MTT cell viability assay, HTB5; conditions: read-out: IC50 against HTB5 cells; 48 h
Protocol: as §1

[3] = test system: HPAEpiC (normal human alveolar epithelial cell line); assay: MTT cell viability assay, HPAEpiC; conditions: read-out: IC50 against HPAEpiC normal cell line, 48 h
Protocol: as §1

HT1376&shControl cells = assay: Antiproliferative activity, control cells HT1376&shControl; conditions: read-out: IC50 against HT1376&shControl cells
Protocol: as §1

[4] = test system: HTB3 (human bladder cell line); assay: MTT cell viability assay, HTB3; conditions: read-out: IC50 against HTB3 cells, 48 h
Protocol: as §1

MAO-A = target: T1, MAO-A (Homo sapiens, UniProt P21397); assay: MAO-A/B biochemical kit, MAO-A
T1 construct: purchased Promega
T1 sequence (P21397 1-527): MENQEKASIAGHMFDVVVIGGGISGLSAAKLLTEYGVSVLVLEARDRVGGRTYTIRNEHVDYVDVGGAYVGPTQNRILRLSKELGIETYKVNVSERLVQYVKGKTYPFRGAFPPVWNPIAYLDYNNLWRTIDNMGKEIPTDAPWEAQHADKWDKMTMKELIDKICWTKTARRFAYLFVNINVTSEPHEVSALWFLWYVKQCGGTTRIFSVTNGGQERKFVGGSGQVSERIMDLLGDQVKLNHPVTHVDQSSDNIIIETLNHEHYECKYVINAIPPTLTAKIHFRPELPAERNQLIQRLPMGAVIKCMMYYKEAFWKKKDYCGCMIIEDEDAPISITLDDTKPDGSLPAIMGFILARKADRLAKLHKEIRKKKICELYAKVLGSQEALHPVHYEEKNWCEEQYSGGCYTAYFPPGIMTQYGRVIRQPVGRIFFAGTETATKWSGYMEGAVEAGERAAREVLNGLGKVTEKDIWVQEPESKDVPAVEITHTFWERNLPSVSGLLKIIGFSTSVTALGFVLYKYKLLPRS
Description: (§2) LSD1 inhibitor screening assay kit was purchased to evaluate for the enzyme inhibition activity of all synthetic compounds (Cayman Chemical, Fort Annapolis, MI). The MAO-A/B biochemical kit was purchased to explore the inhibitory activity against MAO-A and MAO-B (Promega, Madison, WI). […] The signal of each well was read by a GloMax Explorer (Beijing Yuanpinghao Biotechnology Co., Ltd, Beijing, China).

[5] = test system: LX-2 (normal human hepatic stellate cell line); assay: MTT cell viability assay, LX-2; conditions: read-out: IC50 against LX-2 normal cell line, 48 h
Protocol: as §1

HTB3&shControl cells = assay: Antiproliferative activity, control cells HTB3&shControl; conditions: read-out: IC50 against HTB3&shControl cells
Protocol: as §1

[6] = test system: HCT-15 (human colon cell line); assay: MTT cell viability assay, HCT-15; conditions: read-out: IC50 against HCT-15 cells, 48 h
Protocol: as §1

MAO-B = target: T2, MAO-B (Homo sapiens, UniProt P27338); assay: MAO-A/B biochemical kit, MAO-B
T2 construct: purchased Promega
T2 sequence (P27338 1-520): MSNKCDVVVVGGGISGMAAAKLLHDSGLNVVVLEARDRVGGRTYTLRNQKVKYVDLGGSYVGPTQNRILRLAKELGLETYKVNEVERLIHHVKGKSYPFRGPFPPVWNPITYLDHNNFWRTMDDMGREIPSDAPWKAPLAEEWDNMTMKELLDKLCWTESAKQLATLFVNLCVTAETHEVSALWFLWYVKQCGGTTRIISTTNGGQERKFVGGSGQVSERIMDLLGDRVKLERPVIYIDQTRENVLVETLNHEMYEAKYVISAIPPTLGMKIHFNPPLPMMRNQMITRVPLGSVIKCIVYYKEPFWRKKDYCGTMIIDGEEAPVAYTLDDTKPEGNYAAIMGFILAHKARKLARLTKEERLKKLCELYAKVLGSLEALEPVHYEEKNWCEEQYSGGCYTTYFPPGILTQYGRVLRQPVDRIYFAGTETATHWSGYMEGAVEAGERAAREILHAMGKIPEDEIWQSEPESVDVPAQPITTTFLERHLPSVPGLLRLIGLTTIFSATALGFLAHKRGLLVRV
Description: as §2

LSD1 [7] = target: T3, LSD1 (Homo sapiens, UniProt O60341); assay: LSD1 dilution assay; format: biochemical; set-up: purchased Cayman Chemical; conditions: diluted 80 times; Figure 3(C)
Protocol: LSD1 recombinant (Cayman Chemical, […], MI) was incubated with the targeted compound or dimethyl sulphoxide for 60 min. Then, samples were diluted 80 times using a HRP-assay solution containing substrate and coupling reagents. Finally, LSD1 inhibitory activity before and after dilution was examined.

[8] = test system: HIEC (normal human intestinal epithelial cell line); assay: MTT cell viability assay, HIEC; conditions: read-out: IC50 against HIEC normal cell line, 48 h
Protocol: as §1

HTB3&shLSD1 cells = assay: Antiproliferative activity, LSD1 knock-down cells HTB3&shLSD1; conditions: read-out: IC50 against HTB3&shLSD1 cells
Protocol: as §1

[9] = test system: HTB1 cells (bladder cancer cell line); assay: MTT cell viability assay, HTB1; conditions: read-out: IC50 against HTB1 cells; 48 h
Protocol: as §1

[10] = test system: Bel7402 (human liver cell line); assay: MTT cell viability assay, Bel7402; conditions: read-out: IC50 against Bel7402 cells, 48 h
Protocol: as §1

[11] = test system: H1299 (human lung cell line); assay: MTT cell viability assay, H1299; conditions: read-out: IC50 against H1299 cells, 48 h
Protocol: as §1

[12] = test system: HT1376 cells (bladder cancer cell line); assay: MTT cell viability assay, HT1376; conditions: read-out: IC50 against HT1376 cells; 48 h
Protocol: as §1

[13] = test system: H3K4me1, H3K4me2, and H3K9me2 in HT1376 cells; assay: Western blotting of LSD1 substrates; format: cell-based; conditions: Figure 4(D)
Protocol: Cells were seeded in four-well plates (Shanghai Yuanye Biotechnology Co., Ltd, Shanghai, China) and exposed to different compounds at different concentrations. Cells were harvested to obtain protein solution by the RIPA Lysis Buffer (DeTie, NanJing, China). The proteins were separated on sodium dodecyl sulphate–polyacrylamide gel electrophoresis (SDS-PAGE) gels and then transferred to poly(vinylidene fluoride (PVDF) membranes (Shanghai Yuanye Biotechnology Co., Ltd, Shanghai, China). It incubated with the primary antibodies and corresponding HRP conjugated secondary antibodies (Servicebio, Wuhan, China). The […] kit (Servicebio, Wuhan, China) was used to visualise the bands.

[14] = test system: Jurkat (human leukaemia cell line); assay: MTT cell viability assay, Jurkat; conditions: read-out: IC50 against Jurkat cells, 48 h
Protocol: as §1

HT1376&shLSD1 cells = assay: Antiproliferative activity, LSD1 knock-down cells HT1376&shLSD1; conditions: read-out: IC50 against HT1376&shLSD1 cells
Protocol: as §1

LSD1 [15] = target: T3, LSD1; assay: LSD1 inhibitor screening assay kit
Description: as §2

COc1cc(N(CCCCSC(=S)N2CCN(CCO)CC2)S(=O)(=O)c2cccc3cccnc23)cc(OC)c1OC [Compound L8, 4-(N-(3,4,5-trimethoxyphenyl)quinoline-8-sulfonamido)butyl-4–(2-hydroxyethyl)piperazine-1-carbodithioate]
IC50 [1]: 2670 nM | IC50 [2]: 1870 nM | IC50 [3]: > 16000 nM | IC50 (HT1376&shControl cells): 110 nM | IC50 [4]: 180 nM | IC50 (MAO-A): > 120 µM | inhibitory rate MAO-A (MAO-A; at 100 nM): 10.33% | IC50 [5]: > 16000 nM | IC50 (HTB3&shControl cells): 230 nM | IC50 [6]: 2170 nM | IC50 (MAO-B): > 120 µM | inhibitory rate MAO-B (MAO-B; at 100 nM): 9.33% | reversibility of LSD1 inhibition (LSD1 [7]): reversible | IC50 [8]: > 16000 nM | IC50 (HTB3&shLSD1 cells): 3070 nM | IC50 [9]: 930 nM | IC50 [10]: 960 nM | IC50 [11]: 310 nM | IC50 [12]: 90 nM | expression levels of H3K4me1, H3K4me2, and H3K9me2 [13]: increasing; also recorded: increased | IC50 [14]: 290 nM | IC50 (HT1376&shLSD1 cells): 4360 nM | time dependence of LSD1 inhibition (LSD1 [15]; Figure 3(B)): time-dependent | inhibition against LSD1 (LSD1 [15]; at 25 nM): about 30.33% | inhibition against LSD1 (LSD1 [15]; at 50 nM): ~46.00% | inhibition against LSD1 (LSD1 [15]; at 100 nM): ~68.00% | IC50 (LSD1 [15]; read-out: IC50 (μM) LSD1): 0.06 ± 0.01 µM
